# Key:
# [1] = test system: J774.A1; assay: Cytotoxicity against mouse J774A.1 cells assessed as decrease in cell viability at 1 nM after 20 hrs by resazurin dye-based fluorimetric method; settings: j774.a1, 20 h, 0.001 µM
# [2] = test system: Salmonella typhimurium; assay: Genotoxicity in Salmonella typhimurium TA98 assessed as increase in revertant colonies at 5000 uM preincubated for 20 mins followed by addition of top agar and minimal agar and measured after 72 hrs in presence of S9 metabolic activation system by Ames test relative to control; assay type: toxicity, organism-based; settings: salmonella enterica subsp. enterica serovar typhimurium
# [3] = test system: Salmonella typhimurium; assay: Genotoxicity in Salmonella typhimurium TA98 assessed as increase in revertant colonies at 5 uM preincubated for 20 mins followed by addition of top agar and minimal agar and measured after 72 hrs in absence of S9 metabolic activation system by Ames test relative to control; assay type: toxicity, organism-based; settings: salmonella enterica subsp. enterica serovar typhimurium
# [4] = test system: Salmonella typhimurium; assay: Genotoxicity in Salmonella typhimurium TA98 assessed as increase in revertant colonies at 0.5 uM preincubated for 20 mins followed by addition of top agar and minimal agar and measured after 72 hrs in presence of S9 metabolic activation system by Ames test relative to control; assay type: toxicity, organism-based; settings: salmonella enterica subsp. enterica serovar typhimurium
# [5] = test system: J774.A1; assay: Cytotoxicity against mouse J774A.1 cells assessed as decrease in cell viability at 1 uM after 20 hrs by resazurin dye-based fluorimetric method; settings: j774.a1, 20 h
# [6] = test system: Salmonella typhimurium; assay: Genotoxicity in Salmonella typhimurium TA98 assessed as increase in revertant colonies at 5000 uM preincubated for 20 mins followed by addition of top agar and minimal agar and measured after 72 hrs in absence of S9 metabolic activation system by Ames test relative to control; assay type: toxicity, organism-based; settings: salmonella enterica subsp. enterica serovar typhimurium
# [7] = test system: Salmonella typhimurium; assay: Genotoxicity in Salmonella typhimurium TA98 assessed as increase in revertant colonies at 50 uM preincubated for 20 mins followed by addition of top agar and minimal agar and measured after 72 hrs in absence of S9 metabolic activation system by Ames test relative to control; assay type: toxicity, organism-based; settings: salmonella enterica subsp. enterica serovar typhimurium
# [8] = test system: Salmonella typhimurium; assay: Genotoxicity in Salmonella typhimurium TA100 assessed as increase in revertant colonies at 5000 uM preincubated for 20 mins followed by addition of top agar and minimal agar and measured after 72 hrs in presence of S9 metabolic activation system by Ames test relative to control; assay type: toxicity, organism-based; settings: salmonella enterica subsp. enterica serovar typhimurium
# [9] = test system: Mycobacterium tuberculosis; assay: Potency index, ratio of ethambutol MIC to compound MIC for antitubercular activity against Mycobacterium tuberculosis H37Rv ATCC 27294; assay type: functional
# [10] = test system: Salmonella typhimurium; assay: Genotoxicity in Salmonella typhimurium TA100 assessed as increase in revertant colonies at 50 uM preincubated for 20 mins followed by addition of top agar and minimal agar and measured after 72 hrs in presence of S9 metabolic activation system by Ames test relative to control; assay type: toxicity, organism-based; settings: salmonella enterica subsp. enterica serovar typhimurium
# [11] = test system: Salmonella typhimurium; assay: Genotoxicity in Salmonella typhimurium TA98 assessed as increase in revertant colonies at 50 uM preincubated for 20 mins followed by addition of top agar and minimal agar and measured after 72 hrs in presence of S9 metabolic activation system by Ames test relative to control; assay type: toxicity, organism-based; settings: salmonella enterica subsp. enterica serovar typhimurium
# [12] = test system: Mycobacterium tuberculosis; assay: Potency index, ratio of pyrazinamide MIC to compound MIC for antitubercular activity against Mycobacterium tuberculosis H37Rv ATCC 27294; assay type: functional
# [13] = test system: Salmonella typhimurium; assay: Genotoxicity in Salmonella typhimurium TA100 assessed as increase in revertant colonies at 0.5 uM preincubated for 20 mins followed by addition of top agar and minimal agar and measured after 72 hrs in presence of S9 metabolic activation system by Ames test relative to control; assay type: toxicity, organism-based; settings: salmonella enterica subsp. enterica serovar typhimurium
# [14] = test system: Salmonella typhimurium; assay: Genotoxicity in Salmonella typhimurium TA100 assessed as increase in revertant colonies at 0.5 uM preincubated for 20 mins followed by addition of top agar and minimal agar and measured after 72 hrs in absence of S9 metabolic activation system by Ames test relative to control; assay type: toxicity, organism-based; settings: salmonella enterica subsp. enterica serovar typhimurium
# [15] = test system: Salmonella typhimurium; assay: Genotoxicity in Salmonella typhimurium TA98 assessed as increase in revertant colonies at 500 uM preincubated for 20 mins followed by addition of top agar and minimal agar and measured after 72 hrs in presence of S9 metabolic activation system by Ames test relative to control; assay type: toxicity, organism-based; settings: salmonella enterica subsp. enterica serovar typhimurium
# [16] = test system: Salmonella typhimurium; assay: Genotoxicity in Salmonella typhimurium TA100 assessed as increase in revertant colonies at 5000 uM preincubated for 20 mins followed by addition of top agar and minimal agar and measured after 72 hrs in absence of S9 metabolic activation system by Ames test relative to control; assay type: toxicity, organism-based; settings: salmonella enterica subsp. enterica serovar typhimurium
# [17] = test system: Salmonella typhimurium; assay: Genotoxicity in Salmonella typhimurium TA100 assessed as increase in revertant colonies at 50 uM preincubated for 20 mins followed by addition of top agar and minimal agar and measured after 72 hrs in absence of S9 metabolic activation system by Ames test relative to control; assay type: toxicity, organism-based; settings: salmonella enterica subsp. enterica serovar typhimurium
# [18] = Cytotoxicity against human HepG2 cells after 24 hrs by WST-1 assay; assay type: cell-based; settings: read-out: LC50
# [19] = test system: Mycobacterium tuberculosis; assay: Antitubercular activity against Mycobacterium tuberculosis H37Rv ATCC 27294 after 5 days by microplate alamar blue assay; assay type: functional; settings: H37Rv ATCC 27294, 120 h
# [20] = Selectivity index, ratio of LC50 for human HepG2 cells to MIC for Mycobacterium tuberculosis H37Rv ATCC 27294; assay type: toxicity; settings: read-out: Selectivity Index
# [21] = test system: Salmonella typhimurium; assay: Genotoxicity in Salmonella typhimurium TA100 assessed as increase in revertant colonies at 500 uM preincubated for 20 mins followed by addition of top agar and minimal agar and measured after 72 hrs in absence of S9 metabolic activation system by Ames test relative to control; assay type: toxicity, organism-based; settings: salmonella enterica subsp. enterica serovar typhimurium
# [22] = test system: Salmonella typhimurium; assay: Genotoxicity in Salmonella typhimurium TA100 assessed as increase in revertant colonies at 500 uM preincubated for 20 mins followed by addition of top agar and minimal agar and measured after 72 hrs in presence of S9 metabolic activation system by Ames test relative to control; assay type: toxicity, organism-based; settings: salmonella enterica subsp. enterica serovar typhimurium
# [23] = test system: Salmonella typhimurium; assay: Genotoxicity in Salmonella typhimurium TA100 assessed as increase in revertant colonies at 5 uM preincubated for 20 mins followed by addition of top agar and minimal agar and measured after 72 hrs in presence of S9 metabolic activation system by Ames test relative to control; assay type: toxicity, organism-based; settings: salmonella enterica subsp. enterica serovar typhimurium
# [24] = test system: J774.A1; assay: Cytotoxicity against mouse J774A.1 cells assessed as decrease in cell viability at 100 nM after 20 hrs by resazurin dye-based fluorimetric method; settings: j774.a1, 20 h, 0.1 µM
# [25] = test system: Salmonella typhimurium; assay: Genotoxicity in Salmonella typhimurium TA98 assessed as increase in revertant colonies at 5 uM preincubated for 20 mins followed by addition of top agar and minimal agar and measured after 72 hrs in presence of S9 metabolic activation system by Ames test relative to control; assay type: toxicity, organism-based; settings: salmonella enterica subsp. enterica serovar typhimurium
# [26] = test system: J774.A1; assay: Cytotoxicity against mouse J774A.1 cells assessed as decrease in cell viability at 100 uM after 20 hrs by resazurin dye-based fluorimetric method; settings: j774.a1, 20 h
# [27] = Cytotoxicity against human HepG2 cells after 3 hrs by WST-1 assay; assay type: cell-based; settings: read-out: LC50
# [28] = test system: J774.A1; assay: Cytotoxicity against mouse J774A.1 cells assessed as decrease in cell viability at 10 uM after 20 hrs by resazurin dye-based fluorimetric method; settings: j774.a1, 20 h
# [29] = test system: Salmonella typhimurium; assay: Genotoxicity in Salmonella typhimurium TA100 assessed as increase in revertant colonies at 5 uM preincubated for 20 mins followed by addition of top agar and minimal agar and measured after 72 hrs in absence of S9 metabolic activation system by Ames test relative to control; assay type: toxicity, organism-based; settings: salmonella enterica subsp. enterica serovar typhimurium
# [30] = test system: J774.A1; assay: Cytotoxicity against mouse J774A.1 cells assessed as decrease in cell viability at 10 nM after 20 hrs by resazurin dye-based fluorimetric method; settings: j774.a1, 20 h, 0.01 µM
# [31] = test system: Salmonella typhimurium; assay: Genotoxicity in Salmonella typhimurium TA98 assessed as increase in revertant colonies at 500 uM preincubated for 20 mins followed by addition of top agar and minimal agar and measured after 72 hrs in absence of S9 metabolic activation system by Ames test relative to control; assay type: toxicity, organism-based; settings: salmonella enterica subsp. enterica serovar typhimurium
# [32] = test system: Salmonella typhimurium; assay: Genotoxicity in Salmonella typhimurium TA98 assessed as increase in revertant colonies at 0.5 uM preincubated for 20 mins followed by addition of top agar and minimal agar and measured after 72 hrs in absence of S9 metabolic activation system by Ames test relative to control; assay type: toxicity, organism-based; settings: salmonella enterica subsp. enterica serovar typhimurium
structure (smiles),measurement,setting,value
CC(=O)Nc1ccccc1C(=O)C(=O)NNC(=O)c1ccncc1,Activity,[1],99.6%
same,fold change (FC),[2],2.5
same,fold change (FC),[3],1.1
same,fold change (FC),[4],1.1
same,Activity,[5],99.5%
same,fold change (FC),[6],1.3
same,fold change (FC),[7],1.2
same,fold change (FC),[8],1.3
same,Ratio,[9],30
same,fold change (FC),[10],1.2
same,fold change (FC),[11],1.6
same,Ratio,[12],1800
same,fold change (FC),[13],1.1
same,fold change (FC),[14],1
same,fold change (FC),[15],2
same,fold change (FC),[16],1.4
same,fold change (FC),[17],1.3
same,CC50 at 24 h,[18],31.5 µM
same,MIC,[19],0.47 µM
same,selectivity ratio,[20],67
same,fold change (FC),[21],1.3
same,fold change (FC),[22],1.2
same,fold change (FC),[23],1.1
same,Activity,[24],97.7%
same,fold change (FC),[25],1.1
same,Activity,[26],93.3%
same,CC50 at 3 h,[27],> 200 µM
same,Activity,[28],97.1%
same,fold change (FC),[29],1.3
same,Activity,[30],98.7%
same,fold change (FC),[31],1.3
same,fold change (FC),[32],1
CC(=O)Nc1ccc(F)cc1C(F)(F)C(=O)NNC(=O)c1ccncc1,MIC,[19],17.1 µM
CC(=O)Nc1ccc(C)cc1C(=O)C(=O)NNC(=O)c1ccncc1,Activity,[1],100%
same,fold change (FC),[2],4
same,fold change (FC),[3],1.6
same,fold change (FC),[4],1
same,Activity,[5],99.2%
same,fold change (FC),[6],3.4
same,fold change (FC),[7],1.8
same,Ratio,[9],30
same,Activity,[10],Toxic
same,fold change (FC),[11],1.8
same,Ratio,[12],1800
same,fold change (FC),[13],1.1
same,fold change (FC),[14],1.2
same,fold change (FC),[15],3.4
same,fold change (FC),[16],1.6
same,fold change (FC),[17],1.4
same,CC50 at 24 h,[18],> 200 µM
same,MIC,[19],0.45 µM
same,selectivity ratio,[20],> 444
same,fold change (FC),[21],1.4
same,fold change (FC),[23],1.5
same,Activity,[24],99.5%
same,fold change (FC),[25],1.7
same,Activity,[26],94%
same,CC50 at 3 h,[27],> 200 µM
same,Activity,[28],98.2%
same,fold change (FC),[29],1.2
same,Activity,[30],100%
same,fold change (FC),[31],1.9
same,fold change (FC),[32],1.2
CC(=O)Nc1ccccc1C(F)(F)C(=O)NNc1ccccn1,MIC,[19],> 312 µM
CC(=O)Nc1ccccc1C(F)(F)C(=O)NNC(=O)c1ccncc1,MIC,[19],3.59 µM
CC(=O)Nc1ccc(C)cc1C(F)(F)C(=O)NNc1ccccn1,MIC,[19],> 299 µM
CC(=O)Nc1ccc(C)cc1C(F)(F)C(=O)NN,MIC,[19],> 412 µM
CC(=O)Nc1ccc(C)cc1C(F)(F)C(=O)NNC(=O)c1ccncc1,MIC,[19],6.91 µM
CO[C@H]1/C=C/O[C@@]2(C)Oc3c(C)c(O)c4c(O)c(c(/C=N/N5CCN(C)CC5)c(O)c4c3C2=O)NC(=O)/C(C)=C\C=C\[C@H](C)[C@H](O)[C@@H](C)[C@@H](O)[C@@H](C)[C@H](OC(C)=O)[C@@H]1C [RIFAMPIN],MIC,[19],1.22 µM
CC(=O)NNC(=O)c1ccncc1,MIC,[19],> 559 µM
NNC(=O)c1ccncc1 [ISONIAZID],Activity,[1],99.5%
same,Activity,[2],Toxic
same,fold change (FC),[3],1.6
same,fold change (FC),[4],1.3
same,Activity,[5],98.7%
same,fold change (FC),[6],4
same,fold change (FC),[7],2
same,Activity,[10],Toxic
same,fold change (FC),[11],1.5
same,fold change (FC),[13],1.4
same,fold change (FC),[14],1.1
same,fold change (FC),[15],1.6
same,fold change (FC),[16],1.9
same,fold change (FC),[17],1.3
same,CC50 at 24 h,[18],105 µM
same,MIC,[19],0.88 µM
same,selectivity ratio,[20],119
same,fold change (FC),[21],1.6
same,fold change (FC),[23],1.4
same,Activity,[24],97.3%
same,fold change (FC),[25],1.3
same,Activity,[26],90.3%
same,CC50 at 3 h,[27],> 200 µM
same,Activity,[28],98.5%
same,fold change (FC),[29],1.2
same,Activity,[30],98.2%
same,fold change (FC),[31],3.7
same,fold change (FC),[32],1.5

# Source: ChEMBL document CHEMBL4196010, “New hydrazides derivatives of isoniazid against Mycobacterium tuberculosis: Higher potency and lower hepatocytotoxicity” (Eur J Med Chem, 2018)
